# Results published in patent publication US20110212199A1, “AGENT FOR TREATING EYE DISEASES” (priority 2003, published 2011).
# Key:
# asthenopia = test: Example 30: asthenopia; type: in vivo, human; conditions: person; 10 mg/l, once (50 μl) a day; 3 weeks
# [1] = test system: corneal endothelial cells; test: Example 27: regeneration and protection of corneal endothelial cells; type: in vivo, human; conditions: 10 days
# Text: As a measurement device, NONCON ROBO (KONAN INC) specular microscope was used.
# presbyopia [2] = test: Example 16: presbyopia, corrected near visual acuity; type: in vivo, human; conditions: after 14 days; before 0.4
# Text: To […] with presbyopia having corrected near visual acuity (near vision after correction) before treatment of […]
# presbyopia [3] = test: Example 12: presbyopia, near point; type: in vivo, human; conditions: for near point, left eye: before 29 cm
# Method: The patient is person of presbyopia having slight myopia of −2.5 dioptre and −1.0D of astigmatism. When a near point of the left eye of the patient was measured without lens correction, it was 29 cm. Water-soluble 17β-estradiol inclusion product (Cyclodextrin-encapsulated 17β-estradiol available from SIGMA CO. […] To the patient was dropped 1 drop (25 μl) of eye drops at 9 AM per each eye. […] Incidentally, the far point was 41±2 cm in average.
# normal tension glaucoma = test: Example 9: normal tension glaucoma patient; type: in vivo, human
# Method: The patient is person diagnosed as normal tension glaucoma. Water-soluble 17β-estradiol inclusion product (Cyclodextrin-encapsulated 17β-estradiol available from SIGMA CO. […] To the above-mentioned patient, 1 drop (25 μl) of eye drops was dropped per one eye once every morning for 10 days.
# macular hole = test: Example 25: macular hole; type: in vivo, human
# [4] = test system: granular corneal degeneration; test: Example 19: corneal degeneration; type: in vivo, human
# cataract = test: Example 11: cataract patient; type: in vivo, human; conditions: 1 mg/l, 1 drop (50 μl) once per day
# iridocyclitis = test: Example 20: iridocyclitis; type: in vivo, human; conditions: person, right eye; 1 mg/l, 1 drop (50 μl) every morning; after 1 week
# myopia = test: Example 15: myopia; type: in vivo, human
# [5] = test system: Posner-Schlossmans' Syndrome; test: Example 21: Posner-Schlossmans' Syndrome; type: in vivo, human
# [6] = test system: intraocular pressure of house rabbit; test: Effects on intraocular pressure (animal experiment); type: in vivo, colored house rabbits
# Method: For the experiments, five (10 eyes) colored house rabbits (body weight: 1.8 to 2 kg) with 8 months to 10 months from the birth were used. […] Intraocular pressure of the house rabbit before treating with eye drops/eye washes was 14 mmHg at 1 PM. […] The maximum dropping of the intraocular pressure appeared after 50 minutes from washing. Lowering effects of intraocular pressure continued at least up to after 5 hours from washing. […] This house rabbit was immediately washed again with the same eye drops/eye washes, intraocular pressure was lowered up to 13 mmHg after 45 minutes from washing. The house rabbit subjected to eye drops/eye washes treatment was allowed to stand, and intraocular pressure was measured next day at 9 AM, it was 18 mmHg, and the effects of eye drops/eye washes at the previous day remained. […] The effects of administration can be found to be continued for a long time.
# [7] = test system: cataract in ultraviolet ray irradiated eyes of mouse; test: Treatment of cataract (animal experiment), UV-A+UV-B irradiation; type: in vivo
# Method: Control group (Control): To eyes of mouse (4 eyes) were irradiated ultraviolet rays UV-A+UV-B (each 0.36J: 100 μW×1 hour) from 10 PM to 11 PM at the first day, the third day, the fifth day each once, and three times in total. Provided that, before 1 minute and after 1 minute of each ultraviolet ray irradiation, 1 drop (50 μl) of PBS (phosphate buffered physiological saline) was administered, and 1 drop of PBS was administered each once at the second day, the fourth day, the sixth day, the seventh day, the eighth day, the ninth day and the tenth day.
# Pre-administered group of ultraviolet ray irradiation (Pre 0.1 g/l and Pre 0.01 g/l): To eyes of mouse were irradiated ultraviolet rays UV-A+UV-B (each 0.36J: 100 pW×1 hour) from 10 PM to 11 PM at the first day, the third day, the fifth day each once, and three times in total.
# Post-administered group of ultraviolet ray irradiation (Post 0.1 g/l and Post 0.01 g/l): To eyes of mouse were irradiated ultraviolet rays UV-A+UV-B (each 0.36J: 100 μW×1 hour) from 10 PM to 11 PM at the first day, the third day and the fifth day each once, and three times in total.
# [8] = test system: pigmentary retinal degeneration; test: Example 13: pigmentary retinal degeneration; type: in vivo, human; conditions: after 77 days
# Method: The patient is person, and has artificial intraocular lens inserted eyes already carried out a cataract operation. Due to pigmentary retinal degeneration, narrowing of visual field occurs. […] After 77 days from initiation of administration, it could be confirmed that both of visual acuity and visual field were improved. Also, when the visual fields were measured by OCTOPUS 1-2-3 static perimeter before administration and after 77 days from the initiation of the administration, and they were compared, it can be confirmed to be improved. (see FIGS. 27 to 30)
# chalazion = test: Example 14: chalazion; type: in vivo, human; conditions: child, right eye; 1 mg/l, 1 drop (50 μl) once every morning
# [9] = test system: central chorioretinopathy (choriotetinitis); test: Example 31: central chorioretinopathy; type: in vivo, human
# photopsia = test: Example 28: photopsia; type: in vivo, human; conditions: person; 10 mg/l, 1 drop (50 μl) once a day for 3 weeks
# diabetic retinopathy = test: Example 24: diabetic retinopathy; type: in vivo, human
# [10] = test system: high intraocular pressure open-angle glaucoma; test: Example 10: high intraocular pressure open-angle glaucoma patient; type: in vivo, human; set-up: intraocular pressure, right: dose or concentration left out as unconfirmed
# Method: The patient is person diagnosed as high intraocular pressure open-angle glaucoma. Water-soluble 17β-estradiol inclusion product (Cyclodextrin-encapsulated 17β-estradiol available from SIGMA CO. […] To the above-mentioned patient, 1 drop (25 μl) of eye drops was dropped once every morning for a week.
structure (smiles),measurement,setting,value
C[C@]12CC[C@@H]3c4ccc(O)cc4CC[C@H]3[C@@H]1CC[C@@H]2O [17β-estradiol],asthenopia,asthenopia,asthenopia was lightened
same,number of left eye endothelial cells,[1]; before 2906,3496 per mm^2
same,number of right eye endothelial cells,"[1]; person, 1 mg/l, 1 drop (50 μl) once a day, before 2801",3410 cells/mm²
same,near vision after correction Vs (30 cm),presbyopia [2],0.7
same,"near point, left eye",presbyopia [3]; after 3 hours,24 cm
same,"far point, average",presbyopia [3]; in vivo,41±2 cm
same,maximum improvement in refraction (near point),presbyopia [3]; in vivo,5 cm
same,"near point, left eye","presbyopia [3]; person, 100 mg/l, 1 drop (25 μl), after 1 hour",27 cm
same,visual field by Octopus 1-2-3,normal tension glaucoma; after 10 days,both eyes extremely well improved
same,"intraocular pressure, left","normal tension glaucoma; after 10 days, before 12",9 mmHg
same,"intraocular pressure, right","normal tension glaucoma; person, 100 mg/l, 1 drop (25 μl) every morning for 10 days, before 14",12 mmHg
same,"visual acuity, left eye","macular hole; after 1 month, before 0.7",1.2
same,macular hole outcome,"macular hole; person, left eye, 10 mg/l, 1 drop (50 μl) twice a day for 1 month",macular hole was cured
same,Vs vision after correction,"[4]; (1) 2 weeks, before n·c",0.8
same,visual acuity Vs,"[4]; (1) person, left eye, 1 mg/l, 1 drop twice a day, 2 weeks, before 0.6 (n·c)",0.4
same,"opacity of cataract, slit lamp microscope",cataract,opacity of cataract had been reduced
same,visual acuity,cataract,improvement in visual acuity was admitted
same,iridocyclitis outcome,iridocyclitis,inflammatory cells in anterior chamber disappeared
same,visual acuity Vs,"myopia; (1) after 9 days, before 0.6",1.0
same,visual acuity Vs,"myopia; (2) after 45 days, before 0.3",0.5
same,iritis,[5]; after 1 week,iritis disappeared
same,intraocular pressure Tos,"[5]; patient, left eye, 1 mg/l, 1 drop (50 μl) once a day for 1 week, before 36",17 mmHg
same,intraocular pressure,"[6]; 25 μl (1 drop) of 100 mg/l at 1 PM, after 3.5 hours, before 14 mmHg",10 mmHg
same,time the intraocular pressure effect continued,[6]; after 25 μl drop at 1 PM,≥ 5 h
same,time the lowering effect of intraocular pressure continued,[6]; after washing,≥ 5 h
same,time of maximum dropping of intraocular pressure,[6]; after washing with 100 mg/l eye washes at 1 PM,50 min
same,intraocular pressure,"[6]; high-pressure eye, 45 minutes after second washing",13 mmHg
same,intraocular pressure,"[6]; high-pressure eye, next day 9 AM, before further administration",18 mmHg
same,intraocular pressure,"[6]; high-pressure eye, second day, 1 hour 50 minutes after third 25 μl drop",12 mmHg
same,intraocular pressure,"[6]; high-pressure eye, second day, 3 hours 15 minutes after 25 μl drop",13 mmHg
same,intraocular pressure,"[6]; high-pressure eye, second day, 3 hours 15 minutes after second 25 μl drop",13 mmHg
same,intraocular pressure,"[6]; high-pressure eye, third day 3:15 PM",12 mmHg
same,intraocular pressure,"[6]; high-pressure eye, third day 6 PM",11 mmHg
same,intraocular pressure,"[6]; high-pressure eye, third day 9 AM before administration",10 mmHg
same,intraocular pressure,"[6]; high-pressure eye, third day noon, 3 hours after 25 μl drop",9 mmHg
same,intraocular pressure,"[6]; rabbit with one high-pressure eye, 24 mmHg before, 15 minutes after washing at 5 PM",15 mmHg
same,"appearance of cataract, pre-administered vs post-administered group",[7]; administered 1 minute before vs after irradiation,less appearance of cataract
same,occurrence of cataract at the tenth day,"[7]; eye drops 0.1 g/l or 0.01 g/l, 1 drop (50 μl), pre- and post-administered groups, vs PBS control",occurrence of cataract had scarcely observed
same,visual fields by OCTOPUS 1-2-3 static perimeter,[8],improved
same,Vs vision after correction,[8]; before 0.8,1.0
same,visual acuity Vs,[8]; before 0.8,0.5
same,time until tumor disappeared,chalazion,12 days
same,visual acuity Vs,"[9]; after treatment, before 0.1",0.3
same,Vs corrected vision,"[9]; after treatment, before 0.8",1.5
same,macular edema,"[9]; person, left eye, 10 mg/l, 1 drop (50 μl) twice a day, a week",macular edema was lightened
same,photopsia symptom,photopsia,the symptom was lightened
same,retinal bleeding,diabetic retinopathy; after about 100 days,retinal bleeding was disappeared
same,"retinal bleeding, photograph of eyegrounds","diabetic retinopathy; person, 1 mg/l, 1 drop (50 μl) once everyday, after about 2 months",slightly improved
same,"intraocular pressure, left","[10]; after a week, before 24",18 mmHg
same,"visual field, left eye","[10]; after a week, progressed defect before",slightly improved
same,"visual field, right eye","[10]; after a week, slight defect before",substantially normally recovered
same,"intraocular pressure, left",[10]; at 3 weeks,19 mmHg
same,"intraocular pressure, right",[10]; at 3 weeks,20 mmHg
same,"intraocular pressure, right","[10]; person, inclusion product […], 1 drop (25 μl) every morning, after a week, before 23",16 mmHg
